Data set [1] in a line: Antiproliferative activity against estrogen receptor negative human MDA-MB-436 cells.
In another data set the test system is MCF7. Put plainly: Antiproliferative activity against estrogen receptor expressing human MCF7 cells. In kind it is functional.
The next data set deals with HeLa. Put plainly: Cytotoxicity against human HeLa cells. Format: functional.
A further data set has as its system K562. Put plainly: Antiproliferative activity against human K562 cells. Format: functional.
A short description of data set [2]: Antiproliferative activity against HUVEC cells. In kind it is cell-based. The settings on record: human.

By GI50 is commonly meant the concentration giving 50% growth inhibition. Read a low GI50 as more potent growth inhibition. As a reminder, the CC50 is the concentration giving 50% cytotoxicity. Low values mean harm at low concentration, high ones better tolerance by the cells.

Molecules are shown by their SMILES. Some results are limits rather than exact numbers.

Consider `COc1c(O)ccc(-c2coc3cc(O)ccc3c2=O)c1O`, for which the 50% growth inhibitory concentration (GI50) was determined as 68 µM in data set [1] and 37 µM in the data set on MCF7.

In turn, `COc1c(O)ccc(-c2coc3cc(O)cc(O)c3c2=O)c1O` showed a CC50 in the data set on HeLa of 77 µM. In addition, the GI50 in data set [1] was 32 µM; in the data set with K562, 48 µM; in the data set on MCF7 it was 15 µM; in data set [2], 64 µM.

For the compound `O=c1c(-c2cc(O)cc(O)c2)coc2cc(O)cc(O)c12`, the 50% cytotoxic concentration (CC50) with HeLa was 134 µM. In addition, the GI50 in data set [1] was greater than 174 µM; in the data set on K562, 75 µM; in the data set on MCF7, 65 µM; in data set [2], 133 µM.

The compound `O=c1c([C@]2(O)CC[C@@H](O)[C@H](O)C2)coc2cc(O)cc(O)c12` registered a CC50 in the data set on HeLa greater than 162 µM. Also, the GI50 in data set [1] is 138 µM; in the data set with K562, greater than 162 µM; in the data set with MCF7, 84 µM; in data set [2], greater than 162 µM.

As to `O=c1c2c(O)cc(O)cc2occ1[C@]1(O)CC[C@@H](O)CC1`, the values for the concentration for 50% growth inhibition (GI50) (in data set [1]; with MCF7) were 147 µM and 75 µM, respectively.

Take `O=c1c(C2=CCCC(O)C2O)coc2cc(O)cc(O)c12` (stereo not given): half-maximal cytotoxicity in the data set with HeLa (CC50) was put at 81 µM. The GI50 in data set [1] was 17 µM; in the data set on K562, greater than 172 µM; in the data set with MCF7, 6 µM; in data set [2] it was 17 µM.

Consider `COc1cc(-c2coc3cc(O)ccc3c2=O)ccc1O`, for which the results for the GI50 (in data set [1]; in the data set on MCF7) were 75 µM and 42 µM, respectively.

`O=c1c(-c2cc(O)cc(O)c2)coc2cc(O)ccc12` gave a CC50 with HeLa of 160 µM. For the same compound, the GI50 in data set [1] was 169 µM; in the data set on K562, greater than 185 µM; with MCF7, 73 µM; in data set [2] it was greater than 185 µM.

Turning to `O=c1c(-c2ccc(O)cc2)coc2cc(O)ccc12` [DAIDZEIN], the figures for the GI50 (in data set [1]; in the data set with MCF7) were greater than 196 µM and 122 µM, respectively.

Take `O=c1c(-c2ccc(O)cc2)coc2cc(O)cc(O)c12` [GENISTEIN]: the concentration for 50% growth inhibition (GI50) in data set [1] stood at 17 µM; in the data set with MCF7 it was 10 µM.

For the origin of these results see ChEMBL document CHEMBL1154347, “Isoflavones with unusually modified B-rings and their evaluation as antiproliferative agents” (Bioorg Med Chem Lett, 2009).
